We go through 24 compounds from patent publication US8143394B2, “Pyrido(3,2-d)pyrimidines useful for treating viral infections” (Gilead Sciences, Inc., priority 2006, dated 2012).

Bounds are passed on as bounds.

In one data set the test system is HCV replicon. As to the kind of experiment: Anti-HCV replicon assay (EC50, luciferase readout). In kind it is cell-based. As to conditions: Hepatitis C virus, 72 h; human hepatoma Huh-7 cell line harbouring a HCV replicon; 3 days; luciferase; read-out: EC50. As to the method:
(§1) The anti-HCV activity of the pyrido[3,2-d]pyrimidine derivatives of this invention was tested in a human hepatoma Huh-7 cell line harbouring a HCV replicon. The assay comprised the following steps:
(§2) Step 1: Compound Preparation and Serial Dilution
(§3) • 1. for water soluble pyrido[3,2-d]pyrimidine derivatives, a volume of 500 μL of solution in cell media (DMEM, 10% FBS, P/S, L-Glutamine) was prepared with a concentration being twice the concentration of the starting final serial dilution concentration. A volume of 150 μL of the solution was added to the pre-specified wells in column 1 of a 96-well cell culture plate (PerkinElmer, white plate, cat. #6005181, for EC50 assay; black plate, cat. #6005182 for CC50 assay). The rest of the plate, columns 2-12, was filled with 100 μL of cell media. The plate was then placed on a Precision 2000 Workstation to start the serial dilution. Compounds were diluted three times each step from column 1 to column 10. Column 11 was used as a blank control (no compound added). • 2. for pyrido[3,2-d]pyrimidine derivatives requiring DMSO to dissolve, serial dilution is performed in 50% DMSO in a 384-well plate. A solution containing a compound at 100-fold concentration of the starting final serial dilution concentration was prepared in 50% DMSO and added to the pre-specified wells in column 1 of a polypropylene 384-well plate. The plate was then placed on a Precision 2000 Workstation to start the serial dilution. After the serial dilution, a volume of 2 μL of the solution was transferred from the 384-well plate to a 96-well cell culture plate containing 100 μL of cell media on a Biomek FX Workstation. The DMSO concentration in the final assay condition was 0.5% after cells are added to the plate and the total volume in each well is brought to 200 μL. Step 2: to each well of the serial dilution plate prepared above, 100 μL of cell media containing 6000 suspended Huh-7 HCV replicon cells was added with a Multidrop workstation. The plates were incubated for 3 days at 37° C. with 5% CO2. Step 3: Detection: • a) for the EC50 assay, the media in a 96-well cell culture plate was aspirated with a Biotek EL405 plate-washer. A volume of 200 μL of a solution containing a 1:1 mixture of cell-lysis buffer (Promega, Luciferase Cell Culture Lysis 5X Reagent, cat. #E1531) and luciferase substrate solution (Promega, Luciferase Assay, cat. # E4550) was added to each well of the plate with Multidrop. The plate was incubated for 30 minutes at room temperature before the luminescence signal was measured with a TopCount plate-reader. • b) for the CC50 assay, a volume of 100 μL of pre-mixed CellTiter-Glo (Promega, cat. # G7572) solution is added directly to the cell culture in each well of the plate and the luminescence signal is measured with a TopCount plate-reader after 10 minutes of incubation at room temperature.
(§4) Results in table 13 are expressed by the following data: • the 50% effective concentration (EC50), i.e. the concentration that protects 50% of the cell monolayer from virus-induced cythopathic effect, and • the 50% cytostatic concentration (CC50), i.e. the concentration that results in 50% inhibition of cell growth.
(In antiviral work, replicon cells carry a viral genome segment that copies itself.)

A short description of data set [1]: CC50 assay (CellTiter-Glo) in Huh-7 HCV replicon cells. Format: cell-based, human. As to conditions: human, 50% cytostatic concentration. As to the method: as §1, §2, §3, §4
In general terms: Cellular ATP, detected with luciferase, serves as a proxy for viable cell number.

Take `CC(C)(N)C(=O)Nc1ccc(-c2ccc3nc(N)nc(NCCS(C)(=O)=O)c3n2)cc1` [Example 1, 2-Amino-N-{4-[2-amino-4-(2-methanesulfonyl-ethylamino)-pyrido[3,2-d]pyrimidin-6-yl]-phenyl}-2-methyl-propionamide]: the 50% effective concentration (EC50) (as a rule, the concentration needed to bring the measured effect to its halfway point) in the data set on HCV replicon is < 300 nM. The CC50 (commonly the concentration giving 50% cytotoxicity) at 3 days in data set [1] was < 10000 nM.

Take `CS(=O)(=O)CCNc1nc(N)nc2ccc(-c3cccc(NS(=O)(=O)C4CC4)c3)nc12` [Example 2, Cyclopropanesulfonic acid {3-[2-amino-4-(2-methanesulfonyl-ethylamino)-pyrido[3,2-d]pyrimidin-6-yl]-phenyl}-amide]: the EC50 in the data set on HCV replicon is 300 to 1000 nM. The CC50 at 3 days in data set [1] is > 20000 nM.

Consider `CS(=O)(=O)CCNc1nc(N)nc2ccc(-c3cccc(NS(C)(=O)=O)c3)nc12` [Example 3, N-{3-[2-Amino-4-(2-methanesulfonyl-ethylamino)-pyrido[3,2-d]pyrimidin-6-yl]-phenyl}-methanesulfonamide], for which, in the data set with HCV replicon, the 50% effective concentration (EC50) fell in the range of 300 to 1000 nM. Also, the CC50 at 3 days in data set [1] is > 20000 nM.

Regarding `CCC(=O)Nc1ccc(-c2ccc3nc(N)nc(NCCS(C)(=O)=O)c3n2)cc1` [Example 4, N-{4-[2-Amino-4-(2-methanesulfonyl-ethylamino)-pyrido[3,2-d]pyrimidin-6-yl]-phenyl}-propionamide], the EC50 in the data set on HCV replicon is > 1000 nM. In addition, in data set [1], the CC50 at 3 days was > 20000 nM.

For the compound `CC(C)C(=O)Nc1ccc(-c2ccc3nc(N)nc(NCCS(C)(=O)=O)c3n2)cc1` [Example 5, N-{4-[2-Amino-4-(2-methanesulfonyl-ethylamino)-pyrido[3,2-d]pyrimidin-6-yl]-phenyl}-isobutyramide], the EC50 with HCV replicon was < 300 nM. For the same compound, the CC50 at 3 days in data set [1] was > 20000 nM.

As to `COC(=O)Nc1ccc(-c2ccc3nc(N)nc(NCCS(C)(=O)=O)c3n2)cc1` [Example 6, {4-[2-Amino-4-(2-methanesulfonyl-ethylamino)-pyrido[3,2-d]pyrimidin-6-yl]phenyl}-carbamic acid methyl ester], the EC50 with HCV replicon was in the range of 300 to 1000 nM. Besides, the CC50 at 3 days in data set [1] lay within 10000 to 20000 nM.

For the compound `CS(=O)(=O)CCNc1nc(N)nc2ccc(-c3ccc(C(=O)NC4CC4)cc3)nc12` [Example 7, 4-[2-Amino-4-(2-methanesulfonyl-ethylamino)-pyrido[3,2-d]pyrimidin-6-yl]-N-cyclopropyl-benzamide], in the data set with HCV replicon, the EC50 is 300 to 1000 nM. The CC50 at 3 days in data set [1] is > 20000 nM.

Consider `CCC(=O)Nc1ccc(-c2ccc3nc(N)nc(NCCOC)c3n2)cc1` [Example 8, N-{4-[2-Amino-4-(2-methoxy-ethylamino)-pyrido[3,2-d]pyrimidin-6-yl]-phenyl}-propionamide], for which the EC50 with HCV replicon is < 300 nM. In addition, the CC50 at 3 days in data set [1] is > 20000 nM.

Turning to `COCCNc1nc(N)nc2ccc(-c3ccc(NC(=O)C(C)C)cc3)nc12` [Example 9, N-{4-[2-Amino-4-(2-methoxy-ethylamino)-pyrido[3,2-d]pyrimidin-6-yl]-phenyl}-isobutyramide], in the data set on HCV replicon, the EC50 was < 300 nM. This compound also had a CC50 at 3 days in data set [1] of 10000 to 20000 nM.

Take `COCCNc1nc(N)nc2ccc(-c3ccc(NC(=O)OC)cc3)nc12` [Example 10, {4-[2-Amino-4-(2-methoxy-ethylamino)-pyrido[3,2-d]pyrimidin-6-yl]-phenyl}-carbamic acid methyl ester]: the concentration giving a half-maximal response (EC50) in the data set with HCV replicon was 300 to 1000 nM. Further, the CC50 at 3 days in data set [1] is > 20000 nM.

On to `COCCNc1nc(N)nc2ccc(-c3ccc(C(=O)NC4CC4)cc3)nc12` [Example 11, 4-[2-Amino-4-(2-methoxy-ethylamino)-pyrido[3,2-d]pyrimidin-6-yl]-N-cyclopropyl-benzamide], for which the EC50 in the data set with HCV replicon was < 300 nM. Further, the CC50 at 3 days in data set [1] is > 20000 nM.

On to `CCC(=O)Nc1ccc(-c2ccc3nc(N)nc(N4CCS(=O)(=O)CC4)c3n2)cc1` [Example 12, N-{4-[2-Amino-4-(1,1-dioxo-1λ^6-thiomorpholin-4-yl)-pyrido[3,2-d]pyrimidin-6-yl]-phenyl}-propionamide], for which the EC50 with HCV replicon was < 300 nM. In data set [1], the CC50 at 3 days is < 10000 nM.

On to `COC(=O)Nc1ccc(-c2ccc3nc(N)nc(N4CCS(=O)(=O)CC4)c3n2)cc1` [Example 13, {4-[2-Amino-4-(1,1-dioxo-1λ^6-thiomorpholin-4-yl)-pyrido[3,2-d]pyrimidin-6-yl]-phenyl}-carbamic acid methyl ester], for which the EC50 in the data set on HCV replicon was < 300 nM. For the same compound, the cytotoxic concentration (CC50) at 3 days in data set [1] was > 20000 nM.

For the compound `CC(C)C(=O)Nc1ccc(-c2ccc3nc(N)nc(N4CCS(=O)(=O)CC4)c3n2)cc1` [Example 14, N-{4-[2-Amino-4-(1,1-dioxo-1λ^6-thiomorpholin-4-yl)-pyrido[3,2-d]pyrimidin-6-yl]-phenyl}-isobutyramide], the EC50 in the data set with HCV replicon is < 300 nM. Besides, the CC50 at 3 days in data set [1] is > 20000 nM.

For `CC(=O)Nc1ccc(-c2ccc3nc(N)nc(N4CCS(=O)(=O)CC4)c3n2)cc1` [Example 15, N-{4-[2-Amino-4-(1,1-dioxo-1λ^6-thiomorpholin-4-yl)-pyrido[3,2-d]pyrimidin-6-yl]-phenyl}-acetamide], in the data set with HCV replicon, the EC50 was < 300 nM. Further, the CC50 at 3 days in data set [1] is > 20000 nM.

As for `Nc1nc(N2CCS(=O)(=O)CC2)c2nc(-c3ccc(C(=O)NC4CC4)cc3)ccc2n1` [Example 16, 4-[2-Amino-4-(1,1-dioxo-1λ^6-thiomorpholin-4-yl)-pyrido[3,2-d]pyrimidin-6-yl]-N-cyclopropyl-benzamide], in the data set with HCV replicon, the EC50 is < 300 nM. This compound also had a CC50 at 3 days in data set [1] of 10000 to 20000 nM.

On to `Nc1nc(N2CCOCC2)c2nc(-c3ccc(C(=O)NC4CC4)cc3)ccc2n1` [Example 17, 4-(2-amino-4-morpholin-4-yl-pyrido[3,2-d]pyrimidin-6-yl)-N-cyclopropyl-benzamide], for which, in the data set on HCV replicon, the EC50 was < 300 nM. Further, the CC50 at 3 days in data set [1] was < 10000 nM.

In the case of `CCC(=O)Nc1ccc(-c2ccc3nc(N)nc(OCCOC)c3n2)cc1` [Example 18, N-{4-[2-Amino-4-(2-methoxy-ethoxy)-pyrido[3,2-d]pyrimidin-6-yl]-phenyl}-propionamide], the EC50 in the data set on HCV replicon was 300 to 1000 nM. The CC50 at 3 days in data set [1] is > 20000 nM.

For the compound `COCCOc1nc(N)nc2ccc(-c3ccc(NC(=O)OC)cc3)nc12` [Example 19, {4-[2-Amino-4-(2-methoxy-ethoxy)-pyrido[3,2-d]pyrimidin-6-yl]-phenyl}-carbamic acid methyl ester], the EC50 with HCV replicon was 300 to 1000 nM. Further, the CC50 at 3 days in data set [1] is > 20000 nM.

As for `COCCOc1nc(N)nc2ccc(-c3ccc(C(=O)NC4CC4)cc3)nc12` [Example 20, 4-[2-Amino-4-(2-methoxy-ethoxy)-pyrido[3,2-d]pyrimidin-6-yl]-N-cyclopropyl-benzamide], in the data set with HCV replicon, the EC50 was < 300 nM. Moreover, in data set [1], the CC50 at 3 days was > 20000 nM.

`CC(C)C(=O)Nc1ccc(-c2ccc3nc(N)nc(OCCF)c3n2)cc1` [Example 21, N-{4-[2-amino-4-(2-fluoro-ethoxy)-pyrido[3,2-d]pyrimidin-6-yl]-phenyl}-isobutyramide]: in the data set with HCV replicon, the EC50 was in the range of 300 to 1000 nM. Also, the CC50 at 3 days in data set [1] was > 20000 nM.

Regarding `Nc1nc(O[C@@H]2CCOC2)c2nc(-c3ccc(NC(=O)[C@H]4CCNC4)c(F)c3)ccc2n1` [Example 22, Pyrrolidine-3-carboxylic acid {4-[2-amino-4-(tetrahydro-furan-3-yloxy)-pyrido[3,2-d]pyrimidin-6-yl]-2-fluoro-phenyl}-amide], in the data set with HCV replicon, the EC50 is < 300 nM. Moreover, the CC50 at 3 days in data set [1] was > 20000 nM.

In the case of `CC(C)(N)C(=O)Nc1ccc(-c2ccc3nc(N)nc(O[C@@H]4CCOC4)c3n2)cc1F` [Example 23, 2-Amino-N-{4-[2-amino-4-(tetrahydro-furan-3-yloxy)-pyrido[3,2-d]pyrimidin-6-yl]-2-fluoro-phenyl}-2-methyl-propionamide], the EC50 in the data set on HCV replicon was < 300 nM. The CC50 at 3 days in data set [1] was > 20000 nM.

As for `Nc1nc(O[C@@H]2CCOC2)c2nc(-c3ccc(NC(=O)[C@H]4CCNC4)cc3)ccc2n1` [Example 24, Pyrrolidine-3-carboxylic acid {4-[2-amino-4-(tetrahydro-furan-3-yloxy)-pyrido[3,2-d]pyrimidin-6-yl]-phenyl}-amide], in the data set with HCV replicon, the EC50 was > 1000 nM. Besides, in data set [1], the CC50 at 3 days was > 20000 nM.
